The results in this text go back to PubChem BioAssay AID651563 (Sanford-Burnham Center for Chemical Genomics, 2012).

Active and inactive are the calls of the source.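 Rule for the calls: active = compounds whose IC50 is 20 micromolar or lower, counted as confirmed SKN-1 reporter blockers; inactive = the rest.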

This assay has as its system C. elegans VP596 Pgst-4::GFP/RFP ratio, acrylamide, 24 h. As to the kind of experiment: C. elegans gst-4 reporter suppression, concentration series – whole organism, GFP/RFP fluorescence ratio, set 2, strain VP596, SKN-1 inhibitor project, dose response (AID 651563).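 Note: red signal is driven by the dop-3 promoter and serves as the normalizer.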
In general, IC50 refers to the concentration that gives 50% inhibition. For the compound `Clc1ccc(-c2nc3cc(CN4CCCCC4)ccc3o2)cc1`, the IC50 was 87.7 µM (inactive).
`O=C(Nc1ccc(Cl)c(Cl)c1)c1ccco1`: the IC50 is 45.4 µM (inactive).
The figure for `c1ccc(-c2ccc(-n3ccnc3)cc2)cc1` is 10.6 µM; for `CCOc1cc(CNCCSc2nnnn2C)cc(Br)c1OCc1ccc(F)cc1` it is 2.73 µM.
For the compound `O=C(/C=C/Nc1ccc(F)cc1F)c1cccs1`, the IC50 was 5.04 µM.
Under `O=C(Sc1ccc(Cl)cc1)c1ccccn1` stands > 100 µM (inactive); under `C(=C\c1nc(-c2ccncc2)no1)/c1ccccc1`, 19.1 µM; under `CCc1nc2c(OCc3ccc(C(F)(F)F)cc3)cccn2c1N(C)C(=O)c1ccncc1`, 3.57 µM.
`CCOC(=O)c1c(-c2ccc(-c3ccccc3)cc2)csc1NC(=O)CNCCN(C)C`: the IC50 is 10.9 µM.
For `O=[N+]([O-])c1ccc(OCc2cnc(Cl)s2)cc1`, the IC50 is 13.7 µM.
On to `CCN(CC)c1ccc(/C=C2\C(=O)c3ccc(C(=O)O)cc3C2=O)cc1`, for which the IC50 is 12.2 µM.
For `COc1cc(CNC2CCCC2)cc(Cl)c1OCc1ccc(F)cc1`, the IC50 is 11.8 µM.
With `Clc1ccc(-c2nc(-c3ccncc3)no2)c(Cl)c1`, the IC50 was > 100 µM (inactive).
Under `O=C(Nc1ccc(CN2CCOCC2)cc1)c1cc2ccccc2o1` stands 17.5 µM.
Take `Cc1ccc(N=C/C(C(=O)C(F)(F)F)=C(\O)c2ccco2)cc1Cl`: the IC50 was 14.3 µM.
On to `Brc1ccc(-c2cn3ccccc3n2)s1`, for which the IC50 is 18.1 µM.
Regarding `Cc1ccc2nc(-c3ccc(NC(=S)NC4CC(C)(C)NC(C)(C)C4)cc3)sc2c1`, the IC50 was 15.9 µM.
With `O=C(Nc1ccc(OC(F)F)c(Cl)c1)c1ccccn1`, the half-inhibitory concentration (IC50) is 5.09 µM.
The figure for `Clc1ccc(-c2nnc(SCc3ccon3)o2)c(Cl)c1` is > 100 µM (inactive); for `O=[N+]([O-])c1ccc(COc2ccc(CN3CCCCC3)cc2)cc1` it is 8.89 µM; for `O=[N+]([O-])c1ccc(COc2ccc(CN3CCCC3)cc2)cc1` it is 8.62 µM.
Regarding `O=c1c2ccccc2ccc2ccccc12`, the IC50 was 33.8 µM (inactive).
For the compound `Clc1ccc(Cn2nnc(-c3ccccc3)n2)cc1`, the IC50 is 20.9 µM (inactive).
For `Brc1ccc(-c2nc(-c3ccccc3)no2)o1`, the concentration for half-maximal inhibition (IC50) was 2.54 µM.
For `c1ccc(-c2nc3cc4ccccc4cc3[nH]2)nc1`, the IC50 was 16.1 µM.
The figure for `Fc1ccc(-n2nnc(-c3cccnc3Cl)n2)cc1` is 8.82 µM; for `CC1(C)c2ccccc2C(=O)c2ccccc21` it is > 100 µM (inactive); for `O=C(Nc1nc2c(ccc3ccccc32)s1)c1ccco1` it is 17.7 µM.
The figure for `O=[N+]([O-])c1ccc2nc(N3CCCC3)sc2c1` is > 100 µM (inactive); for `Clc1ccc(N2CCN(c3ccnc(Cl)n3)CC2)cc1` it is 17.7 µM.
In the case of `COc1cc(CNC(C)c2ccccc2)cc(Br)c1OCc1ccc(F)cc1` (configuration not stated), the IC50 was 9.1 µM.
Turning to `Fc1ccc(OCc2nc(-c3cccs3)no2)cc1`, the IC50 is 31.5 µM (inactive).
The figure for `O=[N+]([O-])c1ccc2cn(-c3ccccc3)nc2c1` is 2.81 µM; for `O=C(NCc1ccncc1)c1ccc(-c2ccc(F)c(F)c2)c2ccoc12` it is 29.8 µM (inactive); for `Fc1ccc(-c2csc(Nc3ccccn3)n2)cc1` it is 7.01 µM.
The figure for `O=c1cc(-c2ccc(F)cc2)oc2ccccc12` is 19.2 µM; for `c1ccc(Nc2nc(-c3cccs3)cs2)nc1` it is 21.7 µM (inactive).
Take `Cc1ccccc1-c1noc(-c2cccs2)n1`: the IC50 is 9.31 µM.
The figure for `O=C(Nc1nc(SCc2ccc(F)cc2)ns1)c1ccco1` is > 100 µM (inactive).
Under `O=C(C=Cc1cccs1)c1ccc(Cl)s1` stands 17.7 µM; under `N#Cc1cncc(C#Cc2ccccc2)c1`, 31 µM (inactive).
Turning to `c1ccc(-c2csc(-c3cccnc3)n2)cc1`, the IC50 was > 100 µM (inactive).
`O=C(CC(O)(C(F)(F)F)C(F)(F)F)Nc1ccc(Cl)c(Cl)c1`: the IC50 was 27.9 µM (inactive).
Consider `Brc1ccc(CSc2nnc(-c3ccco3)o2)cc1`, for which the IC50 was 7.32 µM.
As for `Clc1ccsc1-c1ccc2ccccc2n1`, the IC50 is 20.3 µM (inactive).
Turning to `O=C1/C(=C/c2ccccc2)CCCc2ccccc21`, the IC50 is 31.6 µM (inactive).
As to `Cc1c(N2C(=O)/C(=C\c3ccc(N(C)C)cc3)N(C)C2=S)c(=O)n(-c2ccccc2)n1C`, the IC50 is 16.9 µM.
Consider `CCn1nccc1C(=O)Nc1ccc(Cl)c(Cl)c1`, for which the IC50 was 87.8 µM (inactive).
Take `Brc1ccc(CSc2nnc(-c3cccnc3)o2)cc1`: the IC50 is 29.1 µM (inactive).
As for `CCCn1nc2cc(C(=O)NCc3ccc(OC(F)(F)F)cc3)ccc2c1OCC`, the IC50 was 25.4 µM (inactive).
Regarding `CC(C)(C)N=C1NN=C(c2ccc(Cl)cc2)CS1`, the IC50 was 25.9 µM (inactive).
As to `CCN(CC)c1ccc(/C=C2/C(=O)c3ccc(C(=O)O)cc3C2=O)cc1`, the IC50 was 11.9 µM.
As for `O=C1NC2C(=CC(O)C(O)C2O)c2cc3c(cc21)OCO3` (configuration not stated), the IC50 was > 100 µM (inactive).
As to `c1ccc(-c2csc(-c3ccncc3)n2)cc1`, the IC50 is 12.6 µM.
As to `c1ccc2sc(SCc3ccc(-c4nnco4)cc3)nc2c1`, the IC50 is 11.9 µM.
Consider `CCOc1cc(CNC2CCCC2)cc(Cl)c1OCc1ccc(F)cc1`, for which the IC50 was 2.85 µM.
For `O=C(Nc1nccs1)c1ccc2ccccc2n1`, the IC50 is 15.8 µM.
Regarding `Fc1ccc(Nc2cccc3nccnc23)cc1`, the IC50 is 47.2 µM (inactive).
For `N=C1C=CC(=C(c2ccc(N)cc2)c2ccc(N)cc2)C=C1`, the IC50 was 20.2 µM (inactive).
Turning to `c1ccc(-n2nnc(-c3nccs3)n2)cc1`, the IC50 is > 100 µM (inactive).
Consider `Cc1ccc(Nc2nc(-c3cccs3)cs2)nc1`, for which the IC50 was 30.2 µM (inactive).
Take `O=C(/C=C/Nc1ccc(F)c(Cl)c1)c1ccco1`: the IC50 is 16.7 µM.
For `COc1ccc2c(c1OC)C(=O)OC2Nc1nc(-c2ccc(-c3ccccc3)cc2)cs1` (configuration not stated), the IC50 is 33.8 µM (inactive).
On to `O=C(c1cccs1)c1ccc(-c2cccs2)s1`, for which the IC50 is 9.1 µM.
The figure for `Fc1ccccc1CSc1ccc(-c2ccco2)nn1` is > 100 µM (inactive); for `c1ccc2oc(SCc3nc4ccccc4s3)nc2c1` it is 27.4 µM (inactive).
As for `Fc1ccc(-n2nnc(-c3cccnc3)n2)cc1`, the IC50 is 24.8 µM (inactive).
As for `CCOc1cc(CNC2CCCC2)cc(Cl)c1OCc1ccccc1`, the IC50 was 22.4 µM (inactive).
Take `Fc1ccc(-n2nnc(-c3nccs3)n2)cc1`: the IC50 is 24.4 µM (inactive).
As to `C=CCSc1ncc(-c2ccccc2)cn1`, the IC50 is 27.2 µM (inactive).
With `CCN(CC)Cc1ccc(NC(=O)c2sc3cc(Cl)ccc3c2Cl)cc1`, the IC50 was 13.8 µM.
For the compound `O=C(/C=C/c1ccco1)Nc1nc(-c2ccccc2)cs1`, the IC50 was 42.6 µM (inactive).
Under `Cc1ccc(CSc2nnc(-c3ccco3)o2)cc1` stands 23.8 µM (inactive); under `COC(=O)c1cccc(CC2(C)C(=O)Nc3ccc(OC(F)(F)F)cc32)c1` (configuration not stated), > 100 µM (inactive).
`Cc1oc(-c2ccc(-c3ccccc3)cc2)nc1CN(C)C1CCOC1` (configuration not stated): the IC50 was 20.6 µM (inactive).
`O=C(/C=C/c1ccc(Cl)cc1)Nc1ccc(CN2CCOCC2)cc1`: the IC50 was 23.3 µM (inactive).
Regarding `Fc1ccc(COc2ccc(-c3nnco3)cc2)c(Cl)c1`, the IC50 was 6.4 µM.
On to `Clc1ccc(Cn2cc(Br)cn2)cc1Cl`, for which the IC50 was 30.6 µM (inactive).
Under `Clc1ccc(-c2nnc(-c3ccco3)o2)cc1` stands 15.8 µM; under `Cc1ccc(NC(=O)c2ccc(F)cc2F)cc1`, > 100 µM (inactive).
Under `C=CCSc1nnc(-c2ccc(Cl)cc2Cl)o1` stands 25.2 µM (inactive); under `CC1=NN(c2ccccc2)C(=O)/C1=C\C=C1/N(C)c2ccccc2C1(C)C`, 14.4 µM.
